Source: patent US4493828A, “Use of thyrotropin releasing hormone and related peptides as poultry growth promotants” (Merck & Co., Inc., priority 1982, dated 1985)

Tested on: 4-week-old Hubbard×Hubbard cockerels
Assay: Example 2: effect of TRH on growth in 4-week-old male chicks (25 days)
Format: in vivo, chicken
Experimental: Four-week-old Hubbard×Hubbard cockerels were used in this experiment, and average weight was 831.38 g. Synthetic TRH (Beckman Co., CA) was dissolved in saline and given daily by intravenous injection via the brachial vein at 0.1 μg/bird, 1.0 μg/bird, and 10 μg/ bird. Birds were weighed twice a week for 4 weeks. Data were analyzed by least squares of variance, using initial weight as a covariant.

[1] = TRH (high) 10 μg/bird daily intravenous, day 11 after start of treatment
[2] = TRH (high) 10 μg/bird daily intravenous, day 15 after start of treatment
[3] = TRH (high) 10 μg/bird daily intravenous, day 18 after start of treatment
[4] = TRH (high) 10 μg/bird daily intravenous, day 22 after start of treatment
[5] = TRH (high) 10 μg/bird daily intravenous, day 25 after start of treatment
[6] = TRH (low) 0.1 μg/bird daily intravenous, day 4 after start of treatment
[7] = TRH (low) 0.1 μg/bird daily intravenous, day 8 after start of treatment
[8] = TRH (low) 0.1 μg/bird daily intravenous, day 11 after start of treatment
[9] = TRH (low) 0.1 μg/bird daily intravenous, day 15 after start of treatment
[10] = TRH (low) 0.1 μg/bird daily intravenous, day 18 after start of treatment
[11] = TRH (low) 0.1 μg/bird daily intravenous, day 18 after start of treatment, p < 0.1
[12] = TRH (low) 0.1 μg/bird daily intravenous, day 22 after start of treatment
[13] = TRH (low) 0.1 μg/bird daily intravenous, day 22 after start of treatment, p < 0.1
[14] = TRH (low) 0.1 μg/bird daily intravenous, day 25 after start of treatment, p < 0.1
[15] = TRH (med.) 1.0 μg/bird daily intravenous, day 4 after start of treatment
[16] = TRH (med.) 1.0 μg/bird daily intravenous, day 8 after start of treatment
[17] = TRH (med.) 1.0 μg/bird daily intravenous, day 11 after start of treatment
[18] = TRH (med.) 1.0 μg/bird daily intravenous, day 15 after start of treatment
[19] = TRH (med.) 1.0 μg/bird daily intravenous, day 18 after start of treatment
[20] = TRH (med.) 1.0 μg/bird daily intravenous, day 18 after start of treatment, p < 0.1
[21] = TRH (med.) 1.0 μg/bird daily intravenous, day 22 after start of treatment
[22] = TRH (med.) 1.0 μg/bird daily intravenous, day 22 after start of treatment, p < 0.05
[23] = TRH (med.) 1.0 μg/bird daily intravenous, day 25 after start of treatment, p<0.025

NC(=O)[C@@H]1CCCN1C(=O)[C@H](Cc1c[nH]cn1)NC(=O)[C@@H]1CCC(=O)N1 [TRH, Glp--His--Pro--NH2]
body weight, percent increased as compared with control (TRH (high) 10 μg/bird daily intravenous, day 8 after start of treatment): 0%
body weight gain [1]: 542.9 ± 20.5 g
body weight gain, percent increase as compared with control [1]: 0%
body weight, least squares mean ± standard error of the mean corrected by initial weight [1]: 1381.7 ± 20.3 g
body weight, percent increased as compared with control [1]: 0%
body weight gain [2]: 786.4 ± 20.4 g
body weight gain, percent increase as compared with control [2]: 0.9%
body weight, least squares mean ± standard error of the mean corrected by initial weight [2]: 1627.6 ± 20.4 g
body weight, percent increased as compared with control [2]: 0.4%
body weight gain [3]: 981.5 ± 24.3 g
body weight gain, percent increase as compared with control [3]: 2.7%
body weight, least squares mean ± standard error of the mean corrected by initial weight [3]: 1821.6 ± 24.2 g
body weight, percent increased as compared with control [3]: 1.4%
body weight gain [4]: 1193.2 ± 26.3 g
body weight gain, percent increase as compared with control [4]: 2.1%
body weight, least squares mean ± standard error of the mean corrected by initial weight [4]: 2034.4 ± 26.3 g
body weight, percent increased as compared with control [4]: 1.2%
body weight gain [5]: 1390.9 ± 28.7 g
body weight gain, percent increase as compared with control [5]: 2.9%
body weight, least squares mean ± standard error of the mean corrected by initial weight [5]: 2232.1 ± 28.7 g
body weight, percent increased as compared with control [5]: 1.7%
body weight gain [6]: 167.1 ± 8.4 g
body weight gain, percent increase as compared with control [6]: 11.8%
body weight, least squares mean ± standard error of the mean corrected by initial weight [6]: 1012.2 ± 8.3 g
body weight, percent increased as compared with control [6]: +2.2%
body weight gain [7]: 407.6 ± 15.1 g
body weight gain, percent increase as compared with control [7]: 7.8%
body weight, least squares mean ± standard error of the mean corrected by initial weight [7]: 1248 ± 15.0 g
body weight, percent increased as compared with control [7]: +2.4%
body weight gain [8]: 585.1 ± 20.5 g
body weight gain, percent increase as compared with control [8]: 7.0%
body weight, least squares mean ± standard error of the mean corrected by initial weight [8]: 1426.4 ± 20.3 g
body weight, percent increased as compared with control [8]: +2.8%
body weight gain [9]: 822.9 ± 20.4 g
body weight gain, percent increase as compared with control [9]: 5.6%
body weight, least squares mean ± standard error of the mean corrected by initial weight [9]: 1664.2 ± 20.4 g
body weight, percent increased as compared with control [9]: +2.7%
body weight gain, percent increase as compared with control [10]: 6.3%
body weight, percent increased as compared with control [10]: +3.3%
body weight gain [11]: 1015.8 ± 24.3 g
body weight, least squares mean ± standard error of the mean corrected by initial weight [11]: 1856.9 ± 24.2 g
body weight gain, percent increase as compared with control [12]: 6.4%
body weight, percent increased as compared with control [12]: 3.7%
body weight gain [13]: 1243.5 ± 26.3 g
body weight, least squares mean ± standard error of the mean corrected by initial weight [13]: 2084.7 ± 26.3 g
body weight, percent increased as compared with control (TRH (low) 0.1 μg/bird daily intravenous, day 25 after start of treatment): 3.4%
body weight gain, percent increase as compared with control (TRH (low) 0.1 μg/bird daily intravenous, day 25 after start of treatment (end of experiment)): 5.6%
body weight gain [14]: 1428.1 g
body weight, least squares mean ± standard error of the mean corrected by initial weight [14]: 2269.3 g
body weight gain [15]: 170.1 ± 7.9 g
body weight gain, percent increase as compared with control [15]: 13.9%
body weight, least squares mean ± standard error of the mean corrected by initial weight [15]: 1010.3 ± 7.8 g
body weight, percent increased as compared with control [15]: +2.0%
body weight gain [16]: 413.4 ± 14.2 g
body weight gain, percent increase as compared with control [16]: 9.3%
body weight, least squares mean ± standard error of the mean corrected by initial weight [16]: 1254.1 ± 14.2 g
body weight, percent increased as compared with control [16]: +2.8%
body weight gain [17]: 573.1 ± 19.3 g
body weight gain, percent increase as compared with control [17]: 4.5%
body weight, least squares mean ± standard error of the mean corrected by initial weight [17]: 1415.4 ± 19.1 g
body weight, percent increased as compared with control [17]: +2.0%
body weight gain [18]: 823.2 ± 19.2 g
body weight gain, percent increase as compared with control [18]: 5.7%
body weight, least squares mean ± standard error of the mean corrected by initial weight [18]: 1664.4 ± 19.2 g
body weight, percent increased as compared with control [18]: +2.7%
body weight gain, percent increase as compared with control [19]: 6.6%
body weight, percent increased as compared with control [19]: +3.5%
body weight gain [20]: 1018.9 ± 22.9 g
body weight, least squares mean ± standard error of the mean corrected by initial weight [20]: 1860.1 ± 22.8 g
body weight gain, percent increase as compared with control [21]: 7.0%
body weight, percent increased as compared with control [21]: 4.1%
body weight gain [22]: 1250.5 ± 24.8 g
body weight, least squares mean ± standard error of the mean corrected by initial weight [22]: 2091.7 ± 24.8 g
body weight, percent increased as compared with control (TRH (med.) 1.0 μg/bird daily intravenous, day 25 after start of treatment): 4.6%
body weight gain, percent increase as compared with control (TRH (med.) 1.0 μg/bird daily intravenous, day 25 after start of treatment (end of experiment)): 7.5%
body weight gain [23]: 1453.2 g
body weight, least squares mean ± standard error of the mean corrected by initial weight [23]: 2294.4 g
